The values that follow are results of earlier work, collected in paper PMC7599555 (Biomedicines, 2020).

This data set relates to TTX-sensitive channels; NaV1.8.

With `NC1=N[C@H](O)[C@H]2[C@H]3O[C@]4(O)O[C@@H]([C@@H](O)[C@@]2(N1)[C@@H]4O)[C@]3(O)CO` [TTX, tetrodotoxin], the “inhibition of TTX-sensitive channels and NaV1.8” value is “fully inhibits TTX-sensitive channels but not NaV1.8”.
